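Each compound was tested at five concentrations against cells in 96-well plates for 48 hours. Abbreviation: GI50, concentration required for 50% inhibition of growth.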 Active and inactive are the calls of the source. No stated cut-off is given here; in the data, active = GI50 up to about 1.1 µM and inactive = higher.
How the values were obtained:
Assay in all cases: NCI tumour cell line growth inhibition, 48 h
NCI/ADR-RES = system: NCI/ADR-RES
SF-268 = system: SF-268
RPMI-8226 = system: RPMI-8226
SN12C = system: SN12C
A549 = system: A549
HOP-62 = system: HOP-62
RXF 393 = system: RXF 393
Malme-3M = system: Malme-3M
HCT-15 = system: HCT-15
K562 = system: K562
DU-145 = system: DU-145
HT-29 = system: HT-29
MOLT-4 = system: MOLT-4
ACHN = system: ACHN
SF-295 = system: SF-295
HCT-116 = system: HCT-116
MDA-MB-231 = system: MDA-MB-231
NCI-H522 = system: NCI-H522
NCI-H226 = system: NCI-H226
T47D = system: T47D

Compound | GI50 (NCI/ADR-RES) | GI50 (SF-268) | GI50 (RPMI-8226) | GI50 (SN12C) | GI50 (A549) | GI50 (HOP-62) | GI50 (RXF 393) | GI50 (Malme-3M) | GI50 (HCT-15) [µM] | GI50 (K562) | GI50 (DU-145) | GI50 (HT-29) | GI50 (MOLT-4) | GI50 (ACHN) | GI50 (SF-295) | GI50 (HCT-116) | GI50 (MDA-MB-231) | GI50 (NCI-H522) | GI50 (NCI-H226) | GI50 (T47D)
CN(C)c1ccc2nc3c(C(=O)O)cc(O)c(O)c3[o+]c2c1 | 28.7 µM (inactive) | 41.5 µM (inactive) | 18.8 µM (inactive) | 20.2 µM (inactive) | > 100 µM (inactive) | 52.8 µM (inactive) | 24.6 µM (inactive) | 6.49 µM (inactive) | 37.5 | 22.4 µM (inactive) | 31.8 µM (inactive) | 38.5 µM (inactive) | 14.4 µM (inactive) | 31.5 µM (inactive) | > 100 µM (inactive) | 24.9 µM (inactive) | 33 µM (inactive) | 5.48 µM (inactive) | 56.5 µM (inactive) | 15.1 µM (inactive)
O=S(=O)(O)c1ccc2c(/N=N/c3cccc4ccccc34)c(O)ccc2c1 | > 100 µM (inactive) | > 100 µM (inactive) | > 100 µM (inactive) | > 100 µM (inactive) | > 100 µM (inactive) | > 100 µM (inactive) | > 100 µM (inactive) | > 100 µM (inactive) | > 100 | > 100 µM (inactive) | > 100 µM (inactive) | > 100 µM (inactive) | > 100 µM (inactive) | > 100 µM (inactive) | 39.1 µM (inactive) | > 100 µM (inactive) | > 100 µM (inactive) | > 100 µM (inactive) | > 100 µM (inactive) | > 100 µM (inactive)
Cc1c(C=C(C#N)C#N)c(=O)n(C)c(=O)n1C | > 100 µM (inactive) | > 100 µM (inactive) | 72.8 µM (inactive) | > 100 µM (inactive) | > 100 µM (inactive) | > 100 µM (inactive) | > 100 µM (inactive) | > 100 µM (inactive) | > 100 | > 100 µM (inactive) | > 100 µM (inactive) | > 100 µM (inactive) | 95.3 µM (inactive) | > 100 µM (inactive) | > 100 µM (inactive) | > 100 µM (inactive) | > 100 µM (inactive) | 31.4 µM (inactive) | > 100 µM (inactive) | > 100 µM (inactive)
CN(C)CCCc1c[nH]c2ccccc12 | > 100 µM (inactive) | > 100 µM (inactive) | > 100 µM (inactive) | > 100 µM (inactive) | > 100 µM (inactive) | > 100 µM (inactive) | > 100 µM (inactive) | > 100 µM (inactive) | > 100 | > 100 µM (inactive) | > 100 µM (inactive) | > 100 µM (inactive) | > 100 µM (inactive) | > 100 µM (inactive) | > 100 µM (inactive) | > 100 µM (inactive) | > 100 µM (inactive) | > 100 µM (inactive) | > 100 µM (inactive) | > 100 µM (inactive)
CCOC(=O)Nc1sc2c(c1C#N)CC(C)CC2 (stereo not given) | 1.96 µM (inactive) | 10.7 µM (inactive) | 4.86 µM (inactive) | 9.62 µM (inactive) | 5.06 µM (inactive) | 9.79 µM (inactive) | 5.38 µM (inactive) | 8.55 µM (inactive) | 2.75 | 2.38 µM (inactive) | 20.9 µM (inactive) | 3.06 µM (inactive) | 4.9 µM (inactive) | 14.7 µM (inactive) | 11.6 µM (inactive) | 4 µM (inactive) | 5.56 µM (inactive) | 1.25 µM (inactive) | 6.15 µM (inactive) | 10.5 µM (inactive)
COc1ccc(/N=C(C)/C(C)=N/c2ccc(OC)cc2)cc1 | 62.8 µM (inactive) | 52.5 µM (inactive) | 25.1 µM (inactive) | > 100 µM (inactive) | 37.9 µM (inactive) | > 100 µM (inactive) | > 100 µM (inactive) | > 100 µM (inactive) | 15.6 | 64.9 µM (inactive) | 30.9 µM (inactive) | 48.6 µM (inactive) | 15.6 µM (inactive) | 3.36 µM (inactive) | 17 µM (inactive) | 72.6 µM (inactive) | > 100 µM (inactive) | > 100 µM (inactive) | > 100 µM (inactive) | 77.1 µM (inactive)
CN(C(=O)Nc1ccc(Cl)c(Cl)c1)C1CCCC[C@@H]1N1CCCC1 (stereo not given in full) | 72.4 µM (inactive) | 31.6 µM (inactive) | 24.7 µM (inactive) | > 100 µM (inactive) | 61.2 µM (inactive) | > 100 µM (inactive) | 37.7 µM (inactive) | 22 µM (inactive) | 41.4 | 24.2 µM (inactive) | 58.6 µM (inactive) | 29.4 µM (inactive) | 19.6 µM (inactive) | 52 µM (inactive) | 84.7 µM (inactive) | 51.8 µM (inactive) | 47.9 µM (inactive) | 41.7 µM (inactive) | 0.092 µM (active) | 39.6 µM (inactive)
CCn1c(=O)c2cn[nH]c2n(C)c1=O | > 100 µM (inactive) | > 100 µM (inactive) | > 100 µM (inactive) | > 100 µM (inactive) | > 100 µM (inactive) | > 100 µM (inactive) | > 100 µM (inactive) | > 100 µM (inactive) | > 100 | > 100 µM (inactive) | > 100 µM (inactive) | > 100 µM (inactive) | > 100 µM (inactive) | > 100 µM (inactive) | > 100 µM (inactive) | > 100 µM (inactive) | > 100 µM (inactive) | > 100 µM (inactive) | > 100 µM (inactive) | > 100 µM (inactive)
CO/C(=N\N=C\c1ccccc1F)c1ccncc1 | > 10 µM (inactive) | > 10 µM (inactive) | > 10 µM (inactive) | > 10 µM (inactive) | > 10 µM (inactive) | > 10 µM (inactive) | > 10 µM (inactive) | > 10 µM (inactive) | > 10 | > 10 µM (inactive) | > 10 µM (inactive) | > 10 µM (inactive) | > 10 µM (inactive) | > 10 µM (inactive) | > 10 µM (inactive) | > 10 µM (inactive) | > 10 µM (inactive) | > 10 µM (inactive) | > 10 µM (inactive) | > 10 µM (inactive)
